Assay results: patent US11104677B2, “Toll-like receptor 9 antagonists” (FRAUNHOFER-GESELLSCHAFT ZUR FÖRDERUNG DER ANGEWANDTEN …, priority 2015, dated 2021)
Read-outs that look alike come from different tables or passages of the source.

Target: T1, TLR9 (Homo sapiens, UniProt Q9NR96)
T1 construct: expressed in transfected cells; host or cells: NIH 3T3 fibroblasts (mouse), stably transfected, NF-kB driven SEAP reporter
T1 sequence (Q9NR96 26-1032): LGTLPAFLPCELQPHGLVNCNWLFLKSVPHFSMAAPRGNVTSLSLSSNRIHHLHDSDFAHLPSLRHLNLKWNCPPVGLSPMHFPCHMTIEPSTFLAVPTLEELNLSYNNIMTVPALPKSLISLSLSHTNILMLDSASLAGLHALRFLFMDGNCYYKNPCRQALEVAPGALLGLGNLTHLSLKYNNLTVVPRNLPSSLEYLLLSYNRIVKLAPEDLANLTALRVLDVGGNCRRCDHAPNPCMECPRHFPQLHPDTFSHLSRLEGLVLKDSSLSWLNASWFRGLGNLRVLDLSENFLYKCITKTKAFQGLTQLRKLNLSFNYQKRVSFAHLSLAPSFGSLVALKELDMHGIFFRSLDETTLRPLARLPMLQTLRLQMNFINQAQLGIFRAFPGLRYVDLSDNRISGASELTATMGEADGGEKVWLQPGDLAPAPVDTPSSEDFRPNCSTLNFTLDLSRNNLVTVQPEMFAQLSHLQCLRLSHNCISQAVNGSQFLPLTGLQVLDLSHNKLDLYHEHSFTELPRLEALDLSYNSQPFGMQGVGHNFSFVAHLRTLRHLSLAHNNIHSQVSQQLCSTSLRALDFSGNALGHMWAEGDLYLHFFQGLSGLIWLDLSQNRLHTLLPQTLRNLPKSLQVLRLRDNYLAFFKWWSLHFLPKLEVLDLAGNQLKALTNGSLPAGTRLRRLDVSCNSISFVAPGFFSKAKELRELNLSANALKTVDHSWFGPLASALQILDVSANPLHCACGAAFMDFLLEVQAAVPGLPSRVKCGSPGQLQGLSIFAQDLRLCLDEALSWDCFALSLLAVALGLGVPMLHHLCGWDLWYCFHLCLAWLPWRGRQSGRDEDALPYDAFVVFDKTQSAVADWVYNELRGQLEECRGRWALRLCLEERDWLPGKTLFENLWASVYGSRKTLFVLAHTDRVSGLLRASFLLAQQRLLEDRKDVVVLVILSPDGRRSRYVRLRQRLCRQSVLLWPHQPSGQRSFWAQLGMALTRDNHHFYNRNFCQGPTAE
Experiment: cell-based reporter assay (NIH 3T3 reporter cell line expressing TLR9, NF-kB driven SEAP, stimulated with CpG ODN 2216)
Details: read-out: IC50 in
Description: In context with the present invention, the ‘IC50 value’ is the half maximum inhibitory concentration which is a measure of the effectiveness of a substance inhibiting the function of the TLR9. The IC50 value can be determined by a functional antagonist assay or a competition binding assay. Preferably, the IC50 value is determined by the cell-based reporter assay in section 3, below, of the examples.
A cell based test-system that allows PAMPs to be identified and differentiated via pattern recognition receptors (PRRs) in a reporter gene assay was used (DE 10 2006 031 483, EP 2 041 172). For this assay human PRRs and co-receptors were stably transfected and expressed in NIH 3T3 fibroblasts. This cell line expresses no other PRRs and contains a reporter gene which is activated by PRR-activation. The induction of receptor complexes by their ligands leads, after a signalling cascade, to an activation of transcription factor NF-kB, which regulates the expression of an additional integrated reporter gene, a secreted alkaline phosphatase (SEAP) (Burger-Kentischer, A.; Abele, I. S.; Finkelmeier, D.; Wiesmüller, K.-H.; Rupp, S., A new cell-based innate immune receptor assay for the examination of receptor activity, ligand specificity, signalling pathways and the detection of pyrogens. J. Immunol. Methods 2010, 358 (1), 93-103).
This test system mimics elements of the innate human immune system and can selectively recognize a large number of PAMPs with high sensitivity. Consequently, the PRR-specific cell-based high-throughput feature of the reporter cell lines will provide a fast, flexible and convenient means for lead compound screening in the pharmaceutical drug development fields. For the in vitro screening of the top candidates identified at IDR, the Fraunhofer IGB used this cell-based reporter system to identify TLR9 antagonists in order to determine their activity as well their biocompatibility. Within a first step the NIH3T3 cell line expressing TLR9 was used to measure the inhibitory effect of the TLR9 antagonists.
For the experiment the reporter cell line expressing TL9 was plated in 96-well cell culture plates at a density of 0.3×10^5 cells in DMEM media supplemented with 10% FCS (Invitrogen), 1% L-glutamine (200 mM Invitrogen) and 1% Penicillin-Streptomycin (PenStrep: 100×, Invitrogen). The cells were incubated for 16 h to grow adherent monolayers at 37° C. in a 5% saturated CO2 humidified atmosphere. After overnight incubation, the media was removed and replaced by DMEM medium supplemented with 1% PenStrep, 1% L-glutamine and 0.5% FCS. The media change is important to avoid a unspecific background signal, caused by active remaining phosphatases present in the FCS. The cells are then stimulated with a specific ligand non-methylated CpG ODN 2216 agonist (Invivogen) and the potential antagonists using different concentrations, namely within a range of concentrations of the potential antagonists starting with 0.025 μM (for the antagonist with the highest activity) up to 14 mM for the antagonists with lowest activities.
The ODN ligand has the sequence 5′-ggGGGACGA:TCGTCgggggg-3′ (SEQ ID No. 1). Those represented by capital letters are phosphodiesters, and those in small letters are phosphorothioate. The Palindrome is underlined.
The cells were again incubated in a humidified atmosphere for 16h leading to the expression or reduced expression of SEAP and its secretion into the media. Binding of the antagonist leads to a block of the TLR9, resulting in no or in a reduced expression of the reporter gene (SEAP). Therefore, 50 μl supernatant were taken from the cells and transferred into a 96-well PS microplate flat bottom (Greiner BIO-ONE). The enzyme substrate reaction was initiated by adding 50 μl of the specific substrate. SEAP catalyses the hydrolysis of pNPP to the final product para-nitrophenol (yellow), which can be detected in a photometric analysis using an UV-VIS reader at 405 nm. […]

[1] = Table 5, first 30 candidates, ODN 2216 agonist, n≥3

| Structure (SMILES) | IC50 [1] | IC50 (in the presence of 5 μM of the ODN 2216 agonist) |
| --- | --- | --- |
| C(=C\c1ccc2ccccc2n1)/c1ccc(N2CCOCC2)cc1 [T6549007, O1CCN(CC1)c1ccc(cc1)\C═C\c1nc2c(cc1)cccc2] | 4320 µM | – |
| COc1ccc(OCCN(C)c2ncnc3c2oc2ccccc23)cc1 [T6593995, o1c2c(ncnc2N(CCOc2ccc(OC)cc2)C)c2c1cccc2] | 905 µM | – |
| Clc1ccc(CN2CCC(NCc3ccc(-n4ccnc4)cc3)CC2)cc1 [T6683896] | – | 0.896 µM |
| COc1ccc(/C=C/c2ccc3ccccc3n2)cc1OC [T6895608, O(C)c1cc(ccc1OC)\C═C\c1nc2c(cc1)cccc2] | 8.91 µM | – |
